In patent US20250136934A1, “PRODUCTION OF INDUCED MIDBRAIN DOPAMINERGIC PROGENITOR CELLS FROM PLURIPOTENT STEM CELLS” (NUWACELL BIOTECHNOLOGIES CO., LTD., priority 2023, published 2025):

Test system: FOXA2+ imDAP cells
Assay: FACS analysis of FOXA2 expression of imDAP cells derived from hiPSCs
Assay type: cell-based, human
Details: 4-step protocol, Day 16
Protocol: • 1. Individualize and collect cells by either Accutase or TrypLE treatment. • 2. Wash cells with 1 ml PBS and pellet cells at 250×g for […]. • 3. Remove supernatant, add ˜200 μl of 4% PFA, mix and fix for 10 min at RT. • 4. Pellet cells at 350×g for 5 min. • 5. Wash cells by 1 ml of FACS buffer and pellet cells at 350×g for 5 min. • 6. Remove supernatant, add 200 μl/tube of FACS buffer/0.1% Triton X, mix for 10 min at RT. • 7. Wash cells by 1 ml of FACS buffer and pellet cells at 350×g for 5 min. • 8. Remove supernatant, add 200 μl/tube of primary antibody diluted in FACS buffer, mix gently, and incubate for 30 min at RT. • 9. Wash cells by 1 ml of FACS buffer and pellet cells at 350×g for 5 min. • 10. Remove supernatant, and add 200 μl of secondary antibody diluted in FACS buffer, mix gently, and incubate for 30 min at RT. • 11. Wash cells by 1 ml of FACS buffer and pellet cells at 300×g for 5 min. • 12. Remove supernatant, add 200 μl of FACS buffer, and run samples on the flow cytometer.
On Day-1, EB formation (Stage 1) was carried out by dissociating hiPSCs (Nuwacell) to form a single-cell suspension and resuspending it in Epic medium (Nuwacell, #RP01001) containing 10 μM Blebbistatin (MCE, #HY-13441) in T25 flasks on a belly dancer and culturing the cells overnight. On Day 0, ventral midbrain floor plate differentiation (Stage 2) was initiated by changing the medium to a Stage 2-1 differentiation medium containing DMEM: F12/B27 (plus Vitamin A) (98:2, v/v) as basal medium and supplemented with 0.2 μM LDN193189, 10 μM SB431542, 1 μg/mL SHH C24II and 1.25 μM CHIR99021 and culturing the cells for 3 Days. From Day 3, the basal medium was changed to DMEM: F12/B27 (minus Vitamin A) (98:2, v/v), and CHIR concentration was boosted to 7.5 μM until Day 10 (Stage 2-2). SB431542 was withdrawn on Day 4, and SHH C24II was withdrawn on Day 8. From Day 10 (Stage 2-3), the medium was changed to a differentiation medium containing DMEM: F12/B27 (minus Vitamin A) (98:2, v/v) as basal medium and supplemented with 0.2 μM LDN193189 and 3 μM CHIR99021. During the cell culture, each of the differentiation media was replaced every day. On Day 16 (at the end of S2-3), EBs were dissociated for single cells and collected for analysis. The cells of each group were stained with FOXA2-PE antibody (BD, #561689), the percentage of FOXA2+ imDAP cells were analyzed by flow cytometry (FIG. 5). The above experiment was repeated for three times and the derived imDAP cells were named as Lot1, Lot2 and Lot3, respectively.
On Day-1, EB formation (Stage 1) was carried out by dissociating hiPSCs (Nuwacell) to form a single-cell suspension and resuspending it in Epic medium (Nuwacell, #RP01001) containing 10 μM Blebbistatin (MCE, #HY-13441) in T25 flasks on a belly dancer and culturing the cells overnight. On Day 0, ventral midbrain floor plate differentiation (Stage 2) was initiated by changing the medium to a Stage 2-1 differentiation medium containing DMEM: F12/B27 (plus Vitamin A) (98:2, v/v) as basal medium and supplemented with 0.2 μM LDN193189, 20 μM SB431542, 1.2 μM CHIR99021, and 1 μg/mL SHH C24II or the combination of SHH agonists including 500 ng/mL SHH C24II, 2 μM Purmorphamine and 10 nM SAG and culturing the cells for 3 days. From Day 3, the basal medium was changed to DMEM: F12/B27 (minus Vitamin A) (98:2, v/v). Cells were exposed to Boost-CHIR concentration of 7.5 μM starting from Day 4 to Day 6 (Stage 2-2), followed by a low CHIR concentration of 1.2 μM (Stage 2-3) until Day 10. […]

Cc1cnc(-c2cnc(NCCNc3ccc(C#N)cn3)nc2-c2ccc(Cl)cc2Cl)[nH]1 [CHIR, CHIR99021]
percentage of cells positive for FOXA2 (low CHIR concentration 1.2 μM in Stage 2-3 (Day 8 to Day 10)): 91.02% | percentage of cells positive for FOXA2 (low CHIR concentration 1.4 μM in Stage 2-3 (Day 8 to Day 10)): 81.89% | percentage of cells positive for FOXA2 (low CHIR concentration 1.6 μM in Stage 2-3 (Day 8 to Day 10)): 85.96%
